# Laboratory results: patent publication US11173151B2, “Substituted triazole derivatives and uses thereof” (BAYER AKTIENGESELLSCHAFT, priority 2017, dated 2021)
# pIC50: −log10 of the molar value.
# Experiments:
# human V1a receptor = molecular target: T1, human V1a receptor (Homo sapiens, UniProt P37288); assay: Cellular in vitro assay for determining vasopressin receptor activity, V1a receptor cell line (CHO, aequorin luminescence); assay type: cell-based; conditions: for pIC50: CHO cell line transfected with human V1a receptor, [Arg]-vasopressin at EC50 concentration, read-out: IC50 hV1a; for ratio IC50 hV2/hV1a: selectivity ratio IC50 hV2 / IC50 hV1a
# T1 construct: expressed in transfected cells; host or cells: CHO K1 (ATCC), also stably transfected with a modified aequorin
# T1 sequence (P37288 whole entry): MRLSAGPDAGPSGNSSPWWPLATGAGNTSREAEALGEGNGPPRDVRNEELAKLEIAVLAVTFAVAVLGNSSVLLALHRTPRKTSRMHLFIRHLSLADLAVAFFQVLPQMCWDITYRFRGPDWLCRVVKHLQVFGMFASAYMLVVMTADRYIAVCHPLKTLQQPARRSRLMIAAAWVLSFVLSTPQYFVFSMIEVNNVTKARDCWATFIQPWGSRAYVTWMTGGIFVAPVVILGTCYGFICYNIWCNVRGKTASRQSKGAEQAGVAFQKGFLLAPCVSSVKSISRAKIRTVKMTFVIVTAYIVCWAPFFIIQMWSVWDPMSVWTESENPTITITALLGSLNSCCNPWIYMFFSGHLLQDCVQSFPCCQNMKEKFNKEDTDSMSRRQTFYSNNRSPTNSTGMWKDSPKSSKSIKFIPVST
# Procedure: (§1) B-1. Cellular In Vitro Assay for Determining Vasopressin Receptor Activity
# (§2) The identification of agonists and antagonists of the V1a and V2 vasopressin receptors from humans, rats and dogs as well as the quantification of the activity of the compounds of the invention is carried out using recombinant cell lines. These cell lines originally derive from a hamster's ovary epithelial cell (Chinese Hamster Ovary, CHO K1, ATCC: American Type Culture Collection, Manassas, Va. 20108, USA). The test cell lines constitutively express the human, rat or dog V1a or V2 receptors. In case of the Gαq-coupled V1a receptors, cells are also stably transfected with a modified form of the calcium-sensitive photoproteins aequorin (human and rat V1a) or obelin (dog V1a), which, after reconstitution with the cofactor coelenterazine, emit light when there are increases in free calcium concentrations [Rizzuto R, Simpson A W, Brini M, Pozzan T, Nature 358, 325-327 (1992); Illarionov B A, Bondar V S, Illarionova V A, Vysotski E S, Gene 153 (2), 273-274 (1995)]. The resulting vasopressin receptor cells react to stimulation of the recombinantly expressed V1a receptors by intracellular release of calcium ions, which can be quantified by the resulting photoprotein luminescence. The Gs-coupled V2 receptors are stably transfected into cell lines expressing the gene for firefly luciferase under control of a CRE-responsible promoter. Activation of V2 receptors induces the activation of the CRE-responsive promoter via cAMP increase, thereby inducing the expression of firefly luciferase. The light emitted by photoproteins of V1a cell lines as well as the light emitted by firefly luciferase of V2 cell lines corresponds to the activation or inhibition of the respective vasopressin receptor. The bioluminescence of the cell lines is detected using a suitable luminometer [Milligan G, Marshall F, Rees S, Trends in Pharmacological Sciences 17, 235-237 (1996)].
# Vasopressin V1a Receptor Cell Lines:
# On the day before the assay, the cells are plated out in culture medium (DMEM/F12, 2% FCS, 2 mM glutamine, 10 mM HEPES, 5 μg/ml coelenterazine) in 384-well microtiter plates and kept in a cell incubator (96% humidity, 5% v/v CO2, 37° C.). On the day of the assay, test compounds in various concentrations are placed for 10 minutes in the wells of the microtiter plate before the agonist [Arg]-vasopressin at EC50 concentration is added. The resulting light signal is measured immediately in a luminometer.
# (§3) Table 1A below lists individual IC50 values for the compounds of the invention (including racemic mixtures as well as separated enantiomers) that were obtained from cell lines transfected with the human V1a or V2 receptor: […]
# human V2 receptor = molecular target: T2, human V2 receptor (Homo sapiens, UniProt P30518); assay: Cellular in vitro assay for determining vasopressin receptor activity, V2 receptor cell line (CHO, CRE-luciferase); assay type: cell-based; conditions: CHO cell line transfected with human V2 receptor; [Arg8]-vasopressin at EC50 concentration, 3 hours; read-out: IC50 hV2
# T2 construct: expressed in transfected cells; host or cells: CHO K1 (ATCC) expressing firefly luciferase under a CRE-responsive promoter
# T2 sequence (P30518 whole entry): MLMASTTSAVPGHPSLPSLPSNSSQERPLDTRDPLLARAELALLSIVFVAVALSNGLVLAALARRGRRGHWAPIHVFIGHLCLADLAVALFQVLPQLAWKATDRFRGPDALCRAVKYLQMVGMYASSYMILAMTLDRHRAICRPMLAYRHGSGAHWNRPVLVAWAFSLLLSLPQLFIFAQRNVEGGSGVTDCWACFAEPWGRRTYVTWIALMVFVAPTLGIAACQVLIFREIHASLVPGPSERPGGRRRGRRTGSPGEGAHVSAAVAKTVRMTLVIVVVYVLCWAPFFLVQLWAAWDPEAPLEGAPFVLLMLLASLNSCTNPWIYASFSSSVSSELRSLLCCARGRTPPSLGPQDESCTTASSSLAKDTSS
# Procedure: as §1, §2
# Vasopressin V2 Receptor Cell Lines:
# On the day before the assay, the cells are plated out in culture medium (DMEM/F12, 2% FCS, 2 mM glutamine, 10 mM HEPES) in 384-well microtiter plates and kept in a cell incubator (96% humidity, 5% v/v CO2, 37° C.). On the day of the assay, test compounds in various concentrations and the agonist [Arg^8]-vasopressin at EC50 concentration are added together to the wells, and plates are incubated for 3 hours in a cell incubator. Upon addition of the cell lysis reagent Triton™ and the substrate luciferin, luminescence of firefly luciferase is measured in a luminometer.
# as §3
SMILES,pIC50 (human V1a receptor),ratio IC50 hV2/hV1a (human V1a receptor),pIC50 (human V2 receptor)
"CC1(O)CCN(c2ccncc2-n2cnc(Cn3nc(-c4ccc(Cl)cc4)n(C[C@H](O)C(F)(F)F)c3=O)n2)C1 (mixture of isomers) [Example 13, 5-(4-Chlorophenyl)-2-[(1-{4-[3-hydroxy-3-methylpyrrolidin-1-yl]pyridin-3-yl}-1H-1,2,4-triazol-3-yl)methyl]-4-[(2S)-3,3,3-trifluoro-2-hydroxypropyl]-2,4-dihydro-3H-1,2,4-triazol-3-one]",6.24,0.2,7.04
"O=C(Nc1cccnc1-n1cnc(Cn2nc(-c3ccc(Cl)cc3)n(C[C@H](O)C(F)(F)F)c2=O)n1)C1CC1(F)F (mixture of isomers) [Example 41, N-{2-[3-({3-(4-Chlorophenyl)-5-oxo-4-[(2S)-3,3,3-trifluoro-2-hydroxypropyl]-4,5-dihydro-1H-1,2,4-triazol-1-yl}methyl)-1H-1,2,4-triazol-1-yl]pyridin-3-yl}-2,2-difluorocyclopropanecarboxamide]",8.46,64.4,6.65
"O=C(Nc1cccnc1-n1cnc(Cn2nc(-c3ccc(Cl)cc3)n(C[C@H](O)C(F)(F)F)c2=O)n1)C1CCS(=O)(=O)C1 (mixture of isomers) [Example 50, N-{2-[3-({3-(4-Chlorophenyl)-5-oxo-4-[(2S)-3,3,3-trifluoro-2-hydroxypropyl]-4,5-dihydro-1H-1,2,4-triazol-1-yl}methyl)-1H-1,2,4-triazol-1-yl]pyridin-3-yl}tetrahydrothiophene-3-carboxamide 1,1-dioxide]",7.69,213.0,5.36
"O=C(Nc1ncccc1-n1cnc(Cn2nc(-c3ccc(Cl)cc3)n(C[C@H](O)C(F)(F)F)c2=O)n1)C1CC1(F)F (mixture of isomers) [Example 75, N-{3-[3-({3-(4-Chlorophenyl)-5-oxo-4-[(2S)-3,3,3-trifluoro-2-hydroxypropyl]-4,5-dihydro-1H-1,2,4-triazol-1-yl}methyl)-1H-1,2,4-triazol-1-yl]pyridin-2-yl}-2,2-difluorocyclopropanecarboxamide]",8.18,197.0,5.89
O=C1CCC(NC(=O)c2ccccc2-n2cnc(Cn3nc(-c4ccc(Cl)cc4)n(C[C@H](O)C(F)(F)F)c3=O)n2)CN1 (mixture of isomers) [Example 191],7.71,192.3,5.43
"NC(CNC(=O)c1ccccc1-n1cnc(Cn2nc(-c3ccc(Cl)cc3)n(C[C@H](O)C(F)(F)F)c2=O)n1)C(F)(F)C(F)F (mixture of isomers) [Example 196, N-[2-Amino-3,3,4,4-tetrafluorobutyl]-2-[3-({3-(4-chlorophenyl)-5-oxo-4-[(2S)-3,3,3-trifluoro-2-hydroxypropyl]-4,5-dihydro-1H-1,2,4-triazol-1-yl}methyl)-1H-1,2,4-triazol-1-yl]benzamide]",7.66,38.9,6.07
"O=C(N[C@H]1C[C@@H]1F)c1ncccc1-n1nc(Cn2nc(-c3ccc(Cl)cc3)n(C[C@@H](O)C(F)(F)F)c2=O)nc1N1CCS(=O)(=O)CC1 (racemic) [Example 487, 3-[3-({3-(4-Chlorophenyl)-5-oxo-4-[(2R)-3,3,3-trifluoro-2-hydroxypropyl]-4,5-dihydro-1H-1,2,4-triazol-1-yl}methyl)-5-(1,1-dioxidothiomorpholin-4-yl)-1H-1,2,4-triazol-1-yl]-N-[2-fluorocyclopropyl]pyridine-2-carboxamide]",5.28,18.9,–

# More lines, now with the values ahead:
pIC50 (human V1a receptor),ratio IC50 hV2/hV1a (human V1a receptor),pIC50 (human V2 receptor),SMILES
5.76,2.2,5.41,"O=C1CCC(CNc2ccncc2-n2cnc(Cn3nc(-c4ccc(Cl)cc4)n(C[C@H](O)C(F)(F)F)c3=O)n2)N1 (mixture of isomers) [Example 7, 5-(4-Chlorophenyl)-2-({1-[4-({[5-oxopyrrolidin-2-yl]methyl}amino)pyridin-3-yl]-1H-1,2,4-triazol-3-yl}methyl)-4-[(2S)-3,3,3-trifluoro-2-hydroxypropyl]-2,4-dihydro-3H-1,2,4-triazol-3-one]"
7.78,22.1,6.44,"O=C(Nc1ccncc1-n1cnc(Cn2nc(-c3ccc(Cl)cc3)n(C[C@H](O)C(F)(F)F)c2=O)n1)C1CC1(F)F (mixture of isomers) [Example 29, N-{3-[3-({3-(4-Chlorophenyl)-5-oxo-4-[(2S)-3,3,3-trifluoro-2-hydroxypropyl]-4,5-dihydro-1H-1,2,4-triazol-1-yl}methyl)-1H-1,2,4-triazol-1-yl]pyridin-4-yl}-2,2-difluorocyclopropanecarboxamide]"
8.29,185.4,6.02,"O=C(Nc1cccnc1-n1cnc(Cn2nc(-c3ccc(Cl)cc3)n(CC(O)C(F)(F)F)c2=O)n1)C1CC1F (mixture of isomers) [Example 59, N-{2-[3-({3-(4-Chlorophenyl)-5-oxo-4-[(2S)-3,3,3-trifluoro-2-hydroxypropyl]-4,5-dihydro-1H-1,2,4-triazol-1-yl}methyl)-1H-1,2,4-triazol-1-yl]pyridin-3-yl}-2-fluorocyclopropanecarboxamide]"
7.48,10.2,6.47,"O=C(Nc1ncccc1-n1cnc(Cn2nc(-c3ccc(Cl)cc3)n(C[C@H](O)C(F)(F)F)c2=O)n1)C1CCS(=O)(=O)C1 (mixture of isomers) [Example 82, N-{3-[3-({3-(4-Chlorophenyl)-5-oxo-4-[(2S)-3,3,3-trifluoro-2-hydroxypropyl]-4,5-dihydro-1H-1,2,4-triazol-1-yl}methyl)-1H-1,2,4-triazol-1-yl]pyridin-2-yl}tetrahydrothiophene-3-carboxamide 1,1-dioxide]"
7.06,39.8,5.46,"CC1(O)CCN(C(=O)c2ccccc2-n2cnc(Cn3nc(-c4ccc(Cl)cc4)n(C[C@H](O)C(F)(F)F)c3=O)n2)C1 (mixture of isomers) [Example 183, 5-(4-Chlorophenyl)-2-{[1-(2-{[3-hydroxy-3-methylpyrrolidin-1-yl]carbonyl}phenyl)-1H-1,2,4-triazol-3-yl]methyl}-4-[(2S)-3,3,3-trifluoro-2-hydroxypropyl]-2,4-dihydro-3H-1,2,4-triazol-3-one]"
6.12,133.3,–,"O=C(c1ncccc1-n1cnc(Cn2nc(-c3ccc(Cl)cc3)n(C[C@@H](O)C(F)(F)F)c2=O)n1)N1CCNC(C(F)(F)F)C1 (mixture of isomers) [Example 476, 5-(4-Chlorophenyl)-4-[(2R)-3,3,3-trifluoro-2-hydroxypropyl]-2-{[1-(2-{[3-(trifluoromethyl)piperazin-1-yl]carbonyl}pyridin-3-yl)-1H-1,2,4-triazol-3-yl]methyl}-2,4-dihydro-3H-1,2,4-triazol-3-one]"
6.25,178.6,–,"O=C1CN(C(=O)c2ncccc2-n2cnc(Cn3nc(-c4ccc(Cl)cc4)n(C[C@@H](O)C(F)(F)F)c3=O)n2)CCN1 [Example 469, 4-({3-[3-({3-(4-Chlorophenyl)-5-oxo-4-[(2R)-3,3,3-trifluoro-2-hydroxypropyl]-4,5-dihydro-1H-1,2,4-triazol-1-yl}methyl)-1H-1,2,4-triazol-1-yl]pyridin-2-yl}carbonyl)piperazin-2-one]"
